Measured values: patent publication EP4613274A1, “SENOLYTIC COMPOUNDS” (Freie Universität Berlin, priority 2024, dated 2025)

How the values were obtained:
hydrogen peroxide = assay: Europium-tetracycline (EuTc) fluorescence assay for hydrogen peroxide generation; assay type: biochemical
Text: For a confirmation of the POG redox cycling, hydrogen peroxide formed by peroxygenin from elemental oxygen was quantified. For this purpose, a fluorescence-based europium tetracycline assay in 3-(N-morpholino)propanesulfonic acid (MOPS) buffer at pH 6.9, close to the physiological pH, was adapted for monitoring of hydrogen peroxide released from POG-4 (Wolfbeis et al., 2002; Dürkop et al., 2005; Wu et al., 2005; Schrenkhammer et al., 2007) Reportedly, this assay is based on the formation of an quaternary pentagonal bipyramidal Eu(III)-tetracycline (Tc) complex of the stoichiometry Eu2Tc2 (Karthikeyan et al., 2004) in which one equivalent of hydrogen peroxide forms a bridged peroxide complex (µ-H2O2 ligand) (Dehaen et al. 2009) and upon excitation at 405 nm fluoresces at 616 nm. First, the sensitivity of the assay toward hydrogen peroxide was investigated. For that, different hydrogen peroxide concentrations, ranging from 10 µM to 1000 µM, were used to analyze the fluorescence signal (Figures 2A and 2B, curves 6 to 14 and 26 to 34; curves 6 and 26:1000 µM, curves 7 and 27: 800 µM, curves 8 and 28: 400 µM, curves 9 and 29: 200 µM, curves 10 and 30: 100 µM, curves 11 and 31: 50 µM, curves 12 and 32: 25 µM, curves 13 and 33: 10 µM, curves 14 and […]).
Next, the same assay conditions were applied to quantify hydrogen peroxide formation from POG-4 (V3) (referred to in the following simply as POG-4) having the following formula: [drawing 142] […]
Protocol: The assay was performed in cuvettes with a base area of 1 cm x 1 cm. Measurement of fluorescence intensity was carried out with a fluorescence spectrometer FP-6500 by Jasco at λem = 616 nm (λex = 405 nm). […]
H2O2 calibration: DTT (10 µL, 200 mM; 1mM final concentration) were added to Eu2Tc2 (2 mL) solution in a cuvette and equilibrated by stirring for 5 min at 37 °C until the fluorescence signal was constant. […] All measurements were repeated three times and a mean was calculated. […]

[1] = test system: Eµ-myc;Bcl2 lymphoma cells; assay: 22-hours cytotoxicity assay (dye exclusion) in therapy-induced senescence (TIS) model; assay type: cell-based, murine; conditions: ADR 0.02 µg/ml for 10 d; for senolytic activity in senescent cells protected by expression of catalase: catalase overexpression, POG for 22 h
Protocol: TIS: Eµ-myc;Bcl2 lymphoma cells (with or without catalase overexpression) and senescence-/p53-deficient Eµ-myc; Bcl2 lymphoma cells were treated with ADR (0.02 µg/ml) or solvent.
(§1) All cells were analyzed at day 10 after start of the treatment and oncogene induction, respectively. Shown in grey in the first (left) column are mean percentages of senescence-associated beta-galactosidase (SA-β-gal)-)positive cells for each treatment. Proliferating cells and their senescent counterpart were exposed to the same increasing concentrations of POG (from left to right: murine Eµ-myc lymphoma cells and primary mouse fibroblasts = 0, 0.2, 0.4, 0.8, and 1.2 µM) POG, for VIS and RS = 0, 2, 3, 4, and 5 µM) POG, and for all others = 0, 1, 2, 3, and 4 µM) POG) for 22 h before measuring their viabilities using a dye exclusion test.
Viability of solvent-treated cells were set to 100% for each treatment and viabilities of POG-treated cells were normalized relative to solvent-treated controls.
The senescent state was documented by specific measurement of increased SA-β-galactosidase activity. […] Eµ-myc;Bcl2 lymphoma cells (with or without ectopic catalase overexpression, introduced via stable retroviral gene transfer) and senescence-/p53-deficient Eµ-myc;Bcl2 lymphoma cells were treated with ADR (0.02 µg/ml) or solvent for 10 d. Proliferating cells and their senescent counterpart were exposed to the same increasing concentrations of POG for 22 h before measuring their viabilities using a dye exclusion test (Ghost Dye Red 780, 13-0865-T500, Tonbo). Viability of solvent-treated cells were set to 100% for each treatment and viabilities of POG-treated cells were normalized relative to solvent-treated controls.

[2] = test system: Primary mouse embryo fibroblasts (MEF); assay: Viability of rotenone-treated MEF with raised cellular NADH (dye exclusion assay); assay type: cell-based; conditions: 500 nM rotenone 2 h prior to POG exposure (1 µM), viability 22 h later
Protocol: Increasing cellular NADH levels sensitizes cells towards POG-mediated killing in a H2O2-dependent fashion. Primary mouse embryo fibroblasts (MEF) were stably transduced with a catalase-overexpressing retrovirus or empty virus and exposed to 500 nM rotenone (an NADH dehydrogenase inhibitor used to increase cellular NADH levels via inhibition of the mitochondrial complex I) 2 h prior to POG exposure (1 µM) before measuring cell viabilities 22 h later using a dye exclusion assay (Ghost Dye Red 780, 13-0865-T500, Tonbo). Figure 5 illustrates the results in form of means ± standard deviation (SD).

C57/BL6 mice [3] = assay: Rotarod performance test in aged mice; assay type: in vivo; conditions: 10-months old mice, 0.25 mg/kg body weight i.v. twice every fortnight, rotarod one month later, versus solvent
Protocol: To quantify the global impact of POG on age-related physical decline, a rotarod performance test was conducted, which captures the time mice can run on a rotating rod before falling off due to exhaustion.
For the experiments, the results of which are shown in Figure 7A, C57/BL6 mice (10-months old, "old mice") were treated twice with POG (0.25 mg/kg body weight, i.v. injected every fortnight; n = 11) or solvent (n = 11), before their physical performance was assessed using a rotarod device one month later (from 4 to 40 rpm in 180 s; acceleration rate: 0.2 rpm/s). For comparison a cohort of untreated young mice (8-weeks old; n = 10) was measured in parallel. Each datapoint represents the maximum time the (previously trained) animal was able to remain on the rotating rod from 5 consecutive runs per mouse.

[4] = test system: Eµ-myc transgenic lymphomas; assay: Overall survival of CTX-treated lymphoma-bearing mice with sequential POG exposure; assay type: in vivo; conditions: CTX 1 × 300 mg/kg i.p. then POG 2 × 0.25 mg/kg i.v.
Protocol: The inventors also analyzed the impact of a sequential POG exposure on overall survival in chemotherapy-exposed mice bearing senescence-capable vs. senescence-incapable lymphomas. […] In essence, POG treatment led to reduction of senescent cells in vivo, and extended healthy lifespan of aged and anticancer-treated mice.
CTX treatment: 1 × 300 mg/kg body weight via i.p., POG treatment: 2 × 0.25 mg/kg body weight via the i.v. application route. Figure 7B illustrates means ± SD, wherein an unpaired two-tailed Student's t test was done for statistical analysis (*P < 0.05).

Liver cell preparations = assay: Ex vivo treatment of liver cell preparations (SA-β-gal, TUNEL, DAPI staining); assay type: cell-based, C57/BL6 mice; conditions: old (20-months old) mice, ex vivo 22 h, POG 1.5 µM
Protocol: Liver cell preparations from young (10-weeks old) and old (20-months old) C57/BL6 mice were treated ex vivo for 22 h with POG (1.5 µM) or solvent. Cells were fixed and stained for SA-β-gal, TUNEL (Terminal deoxynucleotidyl transferase dUTP nick end labeling) and DAPI (4',6-diamidino-2-phenylindole). Percentage of senescent (SA-β-gal-positive) cells present in the viable (TUNEL-negative) liver cell population (Figure 8A) and overall viability of the liver cell population (Figure 8B) was quantified via fluorescence microscopy.

[5] = test system: Primary mouse fibroblasts (MEF); assay: NMU-induced transformation of MEF, soft-agar colony formation; assay type: cell-based; conditions: 2 mM NMU for 5 weeks, POG-4 1.0 µM, 10 weeks in 0.3 % soft-agar
Protocol: Primary mouse fibroblasts (MEF) were treated for 5 weeks with 2 mM N-nitroso-N-methylurea (NMU) or solvent to mutagenize their genomes. Selective killing of senescent subpopulation was assessed by measuring the percentage of SA-β-gal positive cells after POG-4 exposure (1.0 µM for 22 h). […] 2 × 10^4 of viable NMU-pre-treated MEF with or without subsequent POG-4 exposure (1.0 µM) from the experiment of Figure 9A were seeded in 0.3 % soft-agar and cultivated for 10 weeks, before formation of colonies (>50 cells/colony) was quantified. Again, means ± SD are illustrated POG-mediated senolysis of DMBA-induced OIS cells was tested; the results are depicted in Figure 10. Like NMU, 7,12-dimethyl-benzoanthracen (DMBA) is known to induce oncogenic mutations across all Ras isoforms. MEF were mutagenized with DMBA (0.25 µg/ml) for 7 days before cells were exposed to increasing concentrations of POG 1 week later. Cell viabilities were measured 22 h later using a dye exclusion assay (right; (Ghost Dye Red 780, 13-0865-T500, Tonbo). SA-β-gal stainings (left) were performed 2 days after POG exposure. Filled circles denote experiments conducted with solvent; filled squares denote experiments conducted with DMBA.

C57/BL6 mice [6] = assay: NMU-induced tumorigenesis in vivo (T-cell lymphoma development); conditions: 30 mg NMU/kg i.p. for 5 weeks, POG-4 2 × 0.25 mg kg^-1 i.v. within one week, monitored 300 d; p = 0.0258
Protocol: The interference of POG-4 with NMU-induced tumorigenesis was established in vivo (Figure 11). For this purpose, 30 days old C57/BL6 mice were mutagenized for 5 consecutive weeks with 30 mg NMU/kg bodyweight (b.w.) intraperitoneally (i.p.) prior to treatment with POG-4 (2 × 0.25 mg kg^-1 body weight intravenously (i.v.) injected within one week) or solvent, respectively. The mice were subsequently monitored for 300 d and T-cell lymphoma development was plotted as the time between first NMU treatment and tumor manifestation in a Kaplan Meier format. Log-rank [Mantel-Cox] test was used to compare solvent- and POG-treated cohorts.

A549 = assay: Virus-induced senescence (VIS) model, dye exclusion viability test; assay type: cell-based, human; conditions: lentivirus MOI = 50, POG-4 for 22 h
Protocol: VIS: The human alveolar epithelial adenocarcinom cell line A549 as well as VIS-deficient VeroB4 cells were infected with a high-titer GFP-expressing lentivirus (pCDH-CMV-MCS-EF1-GFP; MOI = 50) to induce VIS.
as §1
The adenocarcinomic alveolar epithelial cell line A549 as well as VIS-deficient VeroB4 cells were infected with a high-titer GFP-expressing lentivirus (pCDH-CMV-MCS-EF1-GFP; multiplicity of infection [MOI] = 50). At day 6, the cells were stained for SA-β-gal before treating them with increasing concentrations of POG-4. After 22 h, the cell viability was measured using a dye exclusion test. Figure 12 illustrates means ± SD.

Cn1nc(/C=C/c2ccccc2)nc2c(=O)n(C)c(=O)nc1-2 [POG-4, (E)-1,6-Dimethyl-3-styrylpyrimido[5,4-e][1,2,4]triazine-5,7(1H,6H)-dione]
time at which the maximum concentration was reached (hydrogen peroxide; 5 µM POG-4, 1 mM NADH): approximately 120 minutes
hydrogen peroxide concentration in dependence on NADH concentration (hydrogen peroxide; POG 1 µM, NADH 0.1 mM to 5 mM): higher hydrogen peroxide concentration
generation of H2O2 (fluorescence) (hydrogen peroxide; POG-4 0.1 to 5 µM with 1 mM NADH, MOPS buffer pH 6.9, time frame of 300 min): continuous generation of H2O2
sensitivity of senescent cells versus non-senescent tumor cells (viability) ([1]; then POG for 22 h): significantly more sensitive
senolytic activity in senescent cells protected by expression of catalase [1]: did not exhibit senolytic activity
senolytic activity in senescent cells protected by expression of catalase ([1]; listed as POG): lack sensitivity
dependence of activity on cellular NADH levels [2]: relied on increased levels of the reducing equivalent (NADH)
running time on rotating rod (C57/BL6 mice [3]): significantly extended the running time
overall survival ([4]; senescence-capable p53+/+ Eµ-myc lymphomas, versus DMSO, P = 0.0282): lived significantly longer
overall survival ([4]; senescence-incapable Eµ-myc;p53-null lymphomas, P > 0.05): failed to realize such benefit
percentage of senescent liver cells (Liver cell preparations): decreased significantly
NMU-induced transformation (soft-agar colonies) [5]: ablates NMU-induced transformation
NMU-induced tumorigenesis (time to tumor manifestation) (C57/BL6 mice [6]): interferes with NMU-induced tumorigenesis in vivo
senolytic activity against virus-induced senescence (A549): exhibit senolytic activity
